From patent publication US20150329918A1, “JAGGED1 AS A MARKER AND THERAPEUTIC TARGET FOR BREAST CANCER BONE METASTASIS” (The Trustees of Princeton University, priority 2011, published 2015)

How the values were obtained:
[1] = system: pre-osteoclast Raw 264.7 cells; experiment: Osteoclastogenesis coculture assay (TRAP staining); type: cell-based, mouse; conditions: 15-fold increase by JAG1 OE relative to controls; 1 μM MRK-003; FIG. 15A
Procedure: After seeding 5×10^4 control or JAG1 OE tumor cells/well into 12-well plates, murine pre-osteoclast Raw 264.7 (2×10^5 cells/well) or MOCP5 (5×10^5 cells/well) cells in media containing 30 ng/ml RANKL and DMSO or 1 μM MRK-003 were added the next day. Media were changed every 2 days. TRAP staining was performed on day 6 using a leukocyte acid phosphatase kit (Sigma). TRAP^+-multinucleated cells were scored as mature osteoclasts. The number of nuclei per osteoclast was quantified using TRAP-stained images. Mouse specific qRT-PCR primers were used to selectively quantify Raw264.7 osteoclast gene expression levels after 6 days of coculture (see Table 1 below).
For primary osteoclast coculture assays, bone marrow cells were flushed out from femora and tibiae of 4- to 6-week-old wild-type FVB mice and plated in basal culture medium overnight. The next day, nonadherent cells were added at 1×10^6/well to 12-well plates that were previously seeded with either control or JAG1 OE tumor cells supplemented with 50 ng/ml RANKL and 50 ng/ml M-CSF. Medium was changed every 3 days. TRAP staining and scoring were performed on days 10-12.

JAGGED1 = JAGGED1 mRNA and protein after TGFβ treatment of breast cancer cells in vitro; type: cell-based, human; conditions: several breast cancer cell lines; FIG. 5A
Procedure: SDS lysis buffer (0.05 mM Tris-HCl, 50 mM BME, 2% SDS, 0.1% Bromophenol blue, 10% glycerol) was used to collect protein from cultured cells. Heat denatured protein was then equally loaded, separated on an SDS-page gel, transferred onto a pure nitrocellulose membrane (BioRad), and blocked with either 5% milk or 5% BSA. Primary antibodies for immunoblotting included: goat anti-JAGGED1 (1:1000 dilution, sc-6011, Santa Cruz), rabbit anti-phosho-SMAD2 (1:1000 dilution, Ser465/467, Cell Signaling), and mouse anti-β-actin (1:4000 dilution, Abcam) for loading control. Membranes were incubated with horseradish peroxidase (HRP)-conjugated anti-mouse secondary antibody (1:2000 dilution, GE Healthcare) or anti-rabbit secondary antibody (1:2000 dilution, GE Healthcare) for 1 h and chemiluminescence signals were detected by ECL substrate (GE Healthcare).
(§1) For in vitro experiments, GSI-IX (Calbiochem) and TGFβ Receptor 1 (EMD Biosciences 616451) were dissolved in DMSO. […] RNA and protein were collected and analyzed for JAGGED1 expression as described above. […]
RNA from in vitro cultured cells or flow cytometry-separated cells was collected in RLT lysis buffer and extracted with RNeasy mini kit (Qiagen). […] Quantitative RT-PCR was performed using Power Syber Green PCR Master Mix (Applied Biosystems) with the ABI Prism 7900HT thermocycler (Applied Biosystems) according to the manufacturer's protocol. […]

[2] = system: SCP28 tumor cells cocultured with MC3T3-E1 osteoblasts; experiment: Osteoblast coculture tumor cell quantification by luciferase assay; type: cell-based, human; conditions: cocultured with MC3T3-E1; hIL-6 10 or 100 ng/ml; FIG. 14B
Procedure: MC3T3-E1 cells were seeded at 2×10^5 cells/well in 12-well plates. After confluence was achieved, luciferase/GFP-labeled (GFP+) control and JAG1 OE cells were added at 1×10^4 cells/well in triplicate and treated with DMSO or 1 μM MRK-003. Media supplemented with appropriate drugs were changed every 2 days. After 6 days the coculture was subjected to a luciferase assay to selectively quantify the number of tumor cells. These values were normalized against luciferase quantification of 12-well plates seeded with tumor cells alone.
For transfection experiments, MC3T3-E1 osteoblasts were seeded at 2×10^5 cells/well in 12-well plates and grown to 95% confluence. […] Following 6 days, the coculture was lysed and subjected to a luciferase assay to selectively quantify the number of tumor cells. For gene expression analysis, RNA from cocultures was collected in RLT lysis buffer, extracted with RNeasy mini kit (Qiagen), and subjected to quantitative RT-PCR.
as §1

[3] = system: SCP2 and 1833 bone metastasis; experiment: Bone metastasis xenograft with JAG1 knockdown SCP2 and 1833 cells; type: in vivo, mouse
Procedure: (§2) For bone metastsis studies, 10^5 tumor cells were injected into the left cardiac ventricle of anesthetized female athymic Ncr-nu/nu or BALB/c mice. Development of metastases was monitored by BLI. Bioluminescence images were acquired with a Xenogen IVIS 200 Imaging System. Analysis was performed with Living Image software by measuring photon flux in the hindlimbs of mice. Data were normalized to the signal on day 7. Bone metastasis-free survival curves represent the time point at which each mouse developed bone metastasis by threshold BLI signals in the hindlimbs. For the orthotopic xenograft model, mammary fat pad injections and primary tumor size measurements were performed following the procedure described previously (Minn et al., 2005, which is incorporated herein by reference as if fully set forth).
After 48 hours viruses were collected, filtered and used to infect target cells in the presence of 5 μg/ml polybrene. The infected cells were selected with 1 μg/ml puromycin. […]
Hindlimb bones were excised from mice at the end point of each experiment, immediately after the last BLI time point. […] For quantitative analysis of lesion area, a 5× objective was used to focus on the tumor region of interest and images were acquired using the AxioCamICc3 camera set to an exposure of 100 ms. Lesions that were larger than the field of view were quantified by acquiring multiple images to encompass the entire lesion. The “spline” function of the AxioVision software was used to outline the region of interest and subsequently quantify the lesion area. Osteoclast number was assessed as multinucleated TRAP^+ cells along the tumor-bone interface and reported as number/mm of interface (Yin et al., 2003, which is incorporated herein by reference as if fully set forth). […]

[4] = system: SCP2 and 1833 tumor cells; experiment: Proliferation of JAG1 KD tumor cells in culture or as mammary tumors; set-up: species or system human
Procedure: as §2
After 48 hours viruses were collected, filtered and used to infect target cells in the presence of 5 μg/ml polybrene. The infected cells were selected with 1 μg/ml puromycin. For stable overexpression in the SCP28 human breast cancer cell line, human JAGGED1 cDNA was PCR amplified using the primer pair: 5′-[…]-3′ (Sense) [SEQ ID NO: 2] and 5′-[…]-3′ (Antisense) [SEQ ID NO: 3] and cloned into the retroviral expression vector pMSCVpuro using XhoI and EcoRI restriction sites (underlined=restriction sites, bold=human JAG1-specific sequences). […]

rJAG1: Recombinant rat JAGGED1/Fc chimera (R&D systems)
TRAP+ osteoclasts in JAG1 OE cocultures [1]: confirmed

C[C@H](NC(=O)Cc1cc(F)cc(F)c1)C(=O)N[C@H](C(=O)OC(C)(C)C)c1ccccc1 [GSI IX]
TRAP+ osteoclasts in JAG1 OE cocultures [1]: confirmed

TGFβ: Recombinant human TGFβ1 (R&D systems)
Jagged1 expression upon TGFβ stimulation (JAGGED1): potently upregulated

rIL-6: Recombinant human IL-6 (R&D systems)
proliferative ability of control tumor cells [2]: significantly enhanced

B1: JAG1 KD: shRNA targeting CGTACAAGTAGTTCTGTAT of JAG1 (SEQ ID NO: 1; same as sense strand SEQ ID NO: 78, shRNA SEQ ID NO: 80) (nucleic acid)
chain: GATCTCCCGTACAAGTAGTTCTGTATTTCAAGAGAATACAGAACTACTTGTACGTTTTTGGAAAAGCTTTTCCAAAAACGTACAAGTAGTTCTGTATTCTCTTGAAATACAGAACTACTTGTACGGGA
onset of bone metastasis ([3]; SCP2 and 1833 with JAG1 shRNA): delayed
survival of mice ([3]; SCP2 and 1833 with JAG1 shRNA): significantly extended
decrease in the number of TRAP+ osteoclasts along the bone tumor interface ([3]; histological analysis): 2 fold
ability of tumor cells to proliferate in culture or as mammary tumors in mice [4]: did not alter
